Values quoted from earlier work, collected in patent US10984362B2, “Methods for post-harvest crop pest management” (priority 2017, dated 2021).
Read-outs that look alike come from different tables or passages of the source.

Legend:
[1] = tested on: resistant cigarette beetle; settings: 100% control of all development stages
[2] = tested on: tobacco moth and susceptible cigarette beetle; settings: 100% control of all development stages
[3] = tobacco temperature 16-20 °C (61-68 °F), 300 ppm phosphine at the bale/case centre

P [Phosphine, phosphine]
Minimum Exposure Time [1, 3]: 12 days
Minimum Exposure Time ([1]; tobacco temperature 20-25 °C (68-77 °F), 300 ppm phosphine at the bale/case centre): 12 days
Minimum Exposure Time ([1]; tobacco temperature 20-25 °C (68-77 °F), 700 ppm phosphine at the bale/case centre): 10 days
Minimum Exposure Time ([1]; tobacco temperature >25 °C (>77 °F), 300 ppm phosphine at the bale/case centre): 12 days
Minimum Exposure Time ([1]; tobacco temperature >25 °C (>77 °F), 600 ppm phosphine at the bale/case centre): 6 days
Minimum Exposure Time [2, 3]: 6 days
Minimum Exposure Time ([2]; tobacco temperature >20 °C (>68 °F), 200 ppm phosphine at the bale/case centre): 4 days
